The results in this text go back to ChEMBL document CHEMBL3046470, “Design, synthesis, anti-inflammatory, analgesic screening, and molecular docking of some novel 2-pyridyl (3H)-quinazolin-4-one derivatives” (2013).

The term inhibition in vivo denotes the drop in the measured response relative to a control, in per cent.

Assay [1] deals with Rattus norvegicus. Description: Anti-inflammatory activity against Rattus norvegicus Albino Sprague-Dawley (rat) assessed as inhibition of carrageenan-induced paw edema at 18 mg/kg, ip administered 30 min prior to carrageenan injection measured after 1 hr by plethysmometer analysis. The assay is classed as functional. Particulars: route intraperitoneal.
For assay [2], the system named is Rattus norvegicus. The experiment in a line: Anti-inflammatory activity against Rattus norvegicus Albino Sprague-Dawley (rat) assessed as inhibition of carrageenan-induced paw edema at 50 mg/kg, ip administered 30 min prior to carrageenan injection measured after 4 hr by plethysmometer analysis. On the set-up: dose 50 mg/kg. It is filed as functional, organism-based. For orientation: The carrageenan paw model is a standard test of acute inflammation.

For assay [3], the system named is Rattus norvegicus. Description: Anti-inflammatory activity against Rattus norvegicus albino Sprague-Dawley (rat) assessed as inhibition of carrageenan-induced paw edema at 50 mg/kg, ip administered 30 min prior to carrageenan injection measured after 3 hr by plethysmometer analysis. The assay is classed as functional, organism-based. More on the design: dose 50 mg/kg.

In assay [4] the test system is Rattus norvegicus. The experiment in a line: Anti-inflammatory activity against Rattus norvegicus Albino Sprague-Dawley (rat) assessed as inhibition of carrageenan-induced paw edema at 50 mg/kg, ip administered 30 min prior to carrageenan injection measured after 1 hr by plethysmometer analysis. The conditions noted are these: for inhibition in vivo at 50 mg/kg: route intraperitoneal. The assay is classed as functional.

Assay [5] has as its system Rattus norvegicus. Description: Anti-inflammatory activity against Rattus norvegicus Albino Sprague-Dawley (rat) assessed as inhibition of carrageenan-induced paw edema at 50 mg/kg, ip administered 30 min prior to carrageenan injection measured after 2 hr by plethysmometer analysis. Particulars: for inhibition in vivo at 50 mg/kg: route intraperitoneal. The assay is classed as functional.

For assay [6], the system named is Mus musculus. Description: Analgesic activity in Mus musculus Swiss (mouse) assessed as inhibition of acetic acid-induced writhing at 50 mg/kg, sc administered 1 hr prior to acetic acid injection measured after 5 min for 30 min. The assay is classed as functional. Particulars: route subcutaneous. (Writhing tests count abdominal constrictions after an irritant is injected.)

Assay [7] relates to Rattus norvegicus. Description: Anti-inflammatory activity against Rattus norvegicus Albino Sprague-Dawley (rat) assessed as inhibition of carrageenan-induced paw edema administered 30 min prior to carrageenan injection measured after 4 hr by plethysmometer analysis. It is filed as functional.
For assay [8], the system named is Mus musculus. The experiment in a line: Analgesic activity in Mus musculus Swiss (mouse) assessed as inhibition of acetic acid-induced writhing administered 1 hr prior to acetic acid injection measured after 5 min for 30 min. It is filed as functional. Particulars: read-out: PD50.

Active and inactive are the calls of the source. No cut-off for these calls is given here.

Regarding `COc1ccc2c(c1)c(CC(=O)O)c(C)n2C(=O)c1ccc(Cl)cc1` [INDOMETHACIN], the inhibition in vivo at 18 mg/kg with Rattus norvegicus [1] was found to be 62.9%.
Turning to `COc1ccc(C2CC(c3ccc(-n4c(-c5ccncc5)nc5ccc(Br)cc5c4=O)cc3)=NN2C(C)=O)cc1` (centres undefined), the inhibition result in the assay with Rattus norvegicus [2], with Rattus norvegicus [3] and with Rattus norvegicus [5] was “Active” each time. In the assay with Rattus norvegicus [4], the inhibition in vivo at 50 mg/kg came to 64.5%.
Consider `O=C1N=C(c2ccc(-n3c(-c4ccncc4)nc4ccc(Br)cc4c3=O)cc2)CC(c2ccc(Cl)cc2)N1` (centres undefined), for which the inhibition result in the assay with Rattus norvegicus [2], with Rattus norvegicus [3] and with Rattus norvegicus [5] was “Active” throughout. The inhibition in vivo at 50 mg/kg stood at 75.4% in the assay with Mus musculus [6] and 62.3% with Rattus norvegicus [4].
Consider `O=C(/C=C/c1ccc(Cl)cc1)c1ccc(-n2c(-c3ccncc3)nc3ccc(Br)cc3c2=O)cc1`, for which the inhibition entry in the assay with Rattus norvegicus [2], in the assay on Rattus norvegicus [3] and in the assay with Rattus norvegicus [5] was “Active” in each case. Further, the inhibition in vivo at 50 mg/kg in the assay on Rattus norvegicus [4] stood at 73.8%.
Consider `O=C(/C=C/c1ccc([N+](=O)[O-])cc1)c1ccc(-n2c(-c3ccncc3)nc3ccc(Br)cc3c2=O)cc1`, for which the inhibition result in the assay with Rattus norvegicus [2], with Rattus norvegicus [3] and in the assay on Rattus norvegicus [4] was “Active” each time. The ED50 with Rattus norvegicus [7] worked out at 22.3 mg/kg. In the assay on Rattus norvegicus [5], the inhibition in vivo at 50 mg/kg was determined as 70.5%.
For `Nc1nc(-c2ccc(-n3c(-c4ccncc4)nc4ccc(Br)cc4c3=O)cc2)cs1`, the inhibition entry with Rattus norvegicus [2], in the assay with Rattus norvegicus [3] and in the assay on Rattus norvegicus [4] was “Active” throughout. The inhibition in vivo at 50 mg/kg in the assay with Rattus norvegicus [5] is 62.8%.
Turning to `O=c1c2cc(Br)ccc2nc(-c2ccncc2)n1-c1ccc(-c2csc(O)n2)cc1`, the inhibition result in the assay on Rattus norvegicus [2], with Rattus norvegicus [3] and in the assay on Rattus norvegicus [4] was “Active” in each case. Besides, the figures for the inhibition in vivo at 50 mg/kg with Mus musculus [6] and in the assay with Rattus norvegicus [5] were 75.7% and 67.3%, respectively. The ED50 with Mus musculus [8] is 15 mg/kg.
